According to patent publication US20230265151A1, “GIP/GLP1 CO-AGONIST COMPOUNDS” (priority 2020, published 2023):
Read-outs that look alike come from different tables or passages of the source.

Legend:
Assay type in all cases: cell-based
hGLP-1R = hGLP-1R (Homo sapiens, UniProt P43220); experiment: Functional cAMP formation (HTRF) in HEK-293 clonal cells expressing hGLP-1R, 0.1% bovine casein, without or with 1.0% human serum albumin; parameters: expressed in transfected cells; conditions: for EC50: geometric mean
How it was run: (§1)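 Cells were stimulated with peptide for 30 min at 37° C, then lysed in buffer carrying cAMP-d2 and anti-cAMP Eu3+-cryptate for a competitive HTRF read after at least 60 min at room temperature. The 665/620 nm ratio was converted to nM cAMP against a standard curve.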

hGCGR = target: T1, hGCGR (Homo sapiens, UniProt P47871); experiment: Functional cAMP formation (HTRF) in HEK-293 clonal cells expressing hGCGR, 0.1% bovine casein, without or with 1.0% human serum albumin; conditions: geometric mean
T1 construct: expressed in transfected cells
How it was run: as §1

hGIPR = target: T2, hGIPR (Homo sapiens, UniProt P48546); experiment: Functional cAMP formation (HTRF) in HEK-293 clonal cells expressing hGIPR, 0.1% bovine casein, without or with 1.0% human serum albumin; conditions: for Emax: 37° C.
T2 construct: expressed in transfected cells
T2 sequence (P48546 22-466): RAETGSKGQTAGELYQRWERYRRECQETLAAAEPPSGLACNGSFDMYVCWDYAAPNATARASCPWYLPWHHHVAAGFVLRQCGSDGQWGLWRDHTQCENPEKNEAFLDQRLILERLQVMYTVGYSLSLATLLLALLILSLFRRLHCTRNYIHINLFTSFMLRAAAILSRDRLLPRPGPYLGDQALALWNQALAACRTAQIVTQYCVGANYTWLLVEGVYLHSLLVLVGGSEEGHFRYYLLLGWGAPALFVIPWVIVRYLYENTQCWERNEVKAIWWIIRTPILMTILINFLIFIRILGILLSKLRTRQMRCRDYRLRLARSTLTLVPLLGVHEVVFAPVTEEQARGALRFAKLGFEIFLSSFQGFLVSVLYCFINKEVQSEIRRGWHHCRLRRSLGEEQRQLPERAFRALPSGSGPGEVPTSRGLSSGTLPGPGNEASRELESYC
How it was run: as §1

[1] = HEK293, percent of maximal response to GLP-1(7-36)NH2, 37° C., 0.1% bovine casein, arithmetic mean, read-out: hGLP-1R Emax, % ± SEM
[2] = cAMP, incubated at 37° C., 0.1% bovine casein (no human serum albumin), read-out: hGCGR EC50, nM (SEM, n)
[3] = HEK293, percent of maximal response to GIP(1-42)NH2, 0.1% bovine casein, arithmetic mean, read-out: hGIPR Emax, % ± SEM
[4] = cAMP, incubated at 37° C., 0.1% bovine casein (no human serum albumin), read-out: hGLP-1R EC50, nM (SEM, n)
[5] = HEK293, read-out: hGLP-1R Emax, % ± SEM, percent of maximal response to GLP-1(7-36)NH2, 37° C., 0.1% bovine casein, arithmetic mean
[6] = hGCGR EC50, nM (SEM, n), cAMP, incubated at 37° C., 0.1% bovine casein (no human serum albumin)
[7] = HEK293, read-out: hGIPR Emax, % ± SEM, percent of maximal response to GIP(1-42)NH2, 0.1% bovine casein, arithmetic mean

Sequence of hGLP-1R (P43220 24-463): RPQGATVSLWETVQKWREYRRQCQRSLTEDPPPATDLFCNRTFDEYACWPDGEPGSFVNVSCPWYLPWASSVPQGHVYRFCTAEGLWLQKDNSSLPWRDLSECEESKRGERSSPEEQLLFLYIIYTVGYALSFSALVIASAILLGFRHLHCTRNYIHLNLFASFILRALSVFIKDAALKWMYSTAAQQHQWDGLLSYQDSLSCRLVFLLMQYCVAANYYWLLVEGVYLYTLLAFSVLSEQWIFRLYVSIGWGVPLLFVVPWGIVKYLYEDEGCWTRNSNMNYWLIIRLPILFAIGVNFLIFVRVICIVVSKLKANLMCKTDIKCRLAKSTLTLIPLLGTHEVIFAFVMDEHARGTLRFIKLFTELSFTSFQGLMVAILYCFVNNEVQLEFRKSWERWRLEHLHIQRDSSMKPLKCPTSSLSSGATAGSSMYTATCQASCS
T1 sequence (P47871 26-477): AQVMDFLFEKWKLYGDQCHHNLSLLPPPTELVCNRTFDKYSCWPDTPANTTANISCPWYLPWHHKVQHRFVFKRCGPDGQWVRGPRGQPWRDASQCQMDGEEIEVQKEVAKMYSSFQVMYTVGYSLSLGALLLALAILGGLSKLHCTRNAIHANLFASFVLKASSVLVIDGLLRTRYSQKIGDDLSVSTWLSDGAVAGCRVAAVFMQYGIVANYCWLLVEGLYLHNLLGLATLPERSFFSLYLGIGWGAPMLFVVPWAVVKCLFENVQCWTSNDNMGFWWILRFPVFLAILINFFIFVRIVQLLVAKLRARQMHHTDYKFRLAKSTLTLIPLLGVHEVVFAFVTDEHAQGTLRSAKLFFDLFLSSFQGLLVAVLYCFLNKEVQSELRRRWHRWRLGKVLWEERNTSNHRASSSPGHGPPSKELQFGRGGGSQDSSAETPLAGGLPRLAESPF

CC[C@H](C)[C@H](NC(=O)[C@H](CC(C)C)NC(=O)[C@](C)(Cc1ccc(O)cc1)NC(=O)[C@@H](CCC(=O)O)NC(=O)[C@@H](NC(=O)[C@H](Cc1ccccc1)NC(=O)[C@H](CCC(=O)O)NC(=O)C(C)(C)NC(=O)[C@H](CCC(N)=O)NC(=O)[C@H](C)NC(=O)[C@H](CCCCNC(=O)[C@@H](N)CCCCNC(=O)CC[C@H](NC(=O)CCCCCCCCCCCCC(=O)O)C(=O)O)NC(=O)[C@H](CCCN)NC(=O)[C@H](CC(=O)O)NC(=O)[C@H](CC(C)C)NC(=O)[C@](C)(CC(C)C)NC(=O)[C@@H](NC(=O)C(C)(C)NC(=O)[C@@H](NC(=O)[C@H](CC(=O)O)NC(=O)[C@H](CO)NC(=O)[C@@H](NC(=O)[C@](C)(Cc1ccccc1F)NC(=O)[C@@H](NC(=O)CNC(=O)[C@H](CCC(=O)O)NC(=O)C(C)(C)NC(=O)[C@@H](N)Cc1ccc(O)cc1)[C@@H](C)O)[C@@H](C)O)C(C)C)[C@@H](C)CC)[C@@H](C)CC)C(=O)N[C@@H](CCC(=O)O)C(=O)NCC(=O)NCC(=O)N[C@@H](CCCCNC(=O)[C@@H](N)CCCCNC(=O)CC[C@H](NC(=O)CCCCCCCCCCCCC(=O)O)C(=O)O)C(=O)N[C@@H](CO)C(=O)N[C@@H](CO)C(=O)NCC(=O)N[C@@H](C)C(=O)N1CCC[C@H]1C(=O)N1CCC[C@H]1C(=O)N1CCC[C@H]1C(=O)N[C@@H](CO)C(N)=O [Example 164] showed an EC50 (hGLP-1R; 0.1% bovine casein and 1.0% human serum albumin, 37° C., read-out: hGLP-1R EC50, nM (SEM, n)) of 26.6 nM, an Emax (hGLP-1R; HEK293, 0.1% bovine casein and 1.0% human serum albumin, 37° C., percent of maximal response to GLP-1(7-36)NH2, read-out: hGLP-1R Emax, % ± SEM) of 95.4% and an Emax (hGLP-1R; [1]) of 93.8 ± 0.298%. For the same molecule, the EC50 (hGCGR; 0.1% bovine casein and 1.0% human serum albumin, 37° C., read-out: hGCGR EC50, nM (SEM, n)) was > 9950 nM, the EC50 (hGCGR; [2]) was > 9950 nM and the Emax (hGIPR; HEK293, 0.1% bovine casein and 1.0% human serum albumin, percent of maximal response to GIP(1-42)NH2, read-out: hGIPR Emax, % ± SEM) was 93%. The Emax (hGIPR; [3]) was 95.8 ± 5.48% and the EC50 (hGIPR; cAMP, incubated at 37° C., 0.1% bovine casein (no human serum albumin), geometric mean, read-out: hGIPR EC50, nM (SEM, n)) was 0.0464 nM.

With CC[C@H](C)[C@H](NC(=O)[C@H](CC(C)C)NC(=O)[C@](C)(Cc1ccc(O)cc1)NC(=O)[C@@H](CCC(=O)O)NC(=O)[C@@H](NC(=O)[C@H](Cc1ccccc1)NC(=O)[C@H](CCC(=O)O)NC(=O)C(C)(C)NC(=O)[C@H](CCC(N)=O)NC(=O)[C@H](C)NC(=O)[C@H](CCCCNC(=O)[C@@H](N)CCCCNC(=O)[C@@H](N)CCCCNC(=O)CC[C@H](NC(=O)CCCCCCCCCCCCC(=O)O)C(=O)O)NC(=O)[C@H](CCCN)NC(=O)[C@H](CC(=O)O)NC(=O)[C@H](CC(C)C)NC(=O)[C@](C)(CC(C)C)NC(=O)[C@@H](NC(=O)C(C)(C)NC(=O)[C@@H](NC(=O)[C@H](CC(=O)O)NC(=O)[C@H](CO)NC(=O)[C@@H](NC(=O)[C@](C)(Cc1ccccc1F)NC(=O)[C@@H](NC(=O)CNC(=O)[C@H](CCC(=O)O)NC(=O)C(C)(C)NC(=O)[C@@H](N)Cc1ccc(O)cc1)[C@@H](C)O)[C@@H](C)O)C(C)C)[C@@H](C)CC)[C@@H](C)CC)C(=O)N[C@@H](CCC(=O)O)C(=O)NCC(=O)NCC(=O)N[C@@H](CCCCNC(=O)[C@@H](N)CCCCNC(=O)[C@@H](N)CCCCNC(=O)CC[C@H](NC(=O)CCCCCCCCCCCCC(=O)O)C(=O)O)C(=O)N[C@@H](CO)C(=O)N[C@@H](CO)C(=O)NCC(=O)N[C@@H](C)C(=O)N1CCC[C@H]1C(=O)N1CCC[C@H]1C(=O)N1CCC[C@H]1C(=O)N[C@@H](CO)C(N)=O [Example 165] the Emax (hGLP-1R; [1]) was 94.3%, the EC50 (hGLP-1R; [4]) was 0.291 nM and the EC50 (hGCGR; [2]) was > 9950 nM. It also gave an Emax (hGIPR; [3]) of 96.1%.

For CC[C@H](C)[C@H](NC(=O)[C@H](CC(C)C)NC(=O)[C@](C)(Cc1ccc(O)cc1)NC(=O)[C@H](CCCCNC(=O)COCCOCCNC(=O)COCCOCCNC(=O)[C@@H](N)CCCCNC(=O)CCCCCCCCCCCCC(=O)O)NC(=O)[C@@H](NC(=O)[C@H](Cc1ccccc1)NC(=O)[C@H](CCC(=O)O)NC(=O)C(C)(C)NC(=O)[C@H](CCC(N)=O)NC(=O)[C@H](C)NC(=O)[C@H](CCCCNC(=O)COCCOCCNC(=O)COCCOCCNC(=O)[C@@H](N)CCCCNC(=O)CCCCCCCCCCCCC(=O)O)NC(=O)[C@H](CCCN)NC(=O)[C@H](CC(=O)O)NC(=O)[C@H](CC(C)C)NC(=O)[C@](C)(CC(C)C)NC(=O)[C@@H](NC(=O)C(C)(C)NC(=O)[C@@H](NC(=O)[C@H](CC(=O)O)NC(=O)[C@H](CO)NC(=O)[C@@H](NC(=O)[C@](C)(Cc1ccccc1F)NC(=O)[C@@H](NC(=O)CNC(=O)[C@H](CCC(=O)O)NC(=O)C(C)(C)NC(=O)[C@@H](N)Cc1ccc(O)cc1)[C@@H](C)O)[C@@H](C)O)C(C)C)[C@@H](C)CC)[C@@H](C)CC)C(=O)N[C@@H](CCC(=O)O)C(=O)NCC(=O)NCC(=O)N1CCC[C@H]1C(=O)N[C@@H](CO)C(=O)N[C@@H](CO)C(=O)NCC(=O)N[C@@H](C)C(=O)N1CCC[C@H]1C(=O)N1CCC[C@H]1C(=O)N1CCC[C@H]1C(=O)N[C@@H](CO)C(N)=O [Example 166], the Emax (hGLP-1R; [5]) was 90.3%, the EC50 (hGLP-1R; hGLP-1R EC50, nM (SEM, n), cAMP, incubated at 37° C., 0.1% bovine casein (no human serum albumin)) was 0.192 nM and the EC50 (hGCGR; [6]) was > 9950 nM. The Emax (hGIPR; [7]) was 97%.

In the case of CC[C@H](C)[C@H](NC(=O)[C@H](CC(C)C)NC(=O)[C@](C)(Cc1ccc(O)cc1)NC(=O)[C@H](CCCCNC(=O)[C@@H](N)CCCCNC(=O)[C@@H](N)CCCCNC(=O)CC[C@H](NC(=O)CCCCCCCCCCCCC(=O)O)C(=O)O)NC(=O)[C@@H](NC(=O)[C@H](Cc1ccccc1)NC(=O)[C@H](CCC(=O)O)NC(=O)C(C)(C)NC(=O)[C@H](CCC(N)=O)NC(=O)[C@H](C)NC(=O)[C@H](CCCCNC(=O)[C@@H](N)CCCCNC(=O)[C@@H](N)CCCCNC(=O)CC[C@H](NC(=O)CCCCCCCCCCCCC(=O)O)C(=O)O)NC(=O)[C@H](CCCN)NC(=O)[C@H](CC(=O)O)NC(=O)[C@H](CC(C)C)NC(=O)[C@](C)(CC(C)C)NC(=O)[C@@H](NC(=O)C(C)(C)NC(=O)[C@@H](NC(=O)[C@H](CC(=O)O)NC(=O)[C@H](CO)NC(=O)[C@@H](NC(=O)[C@](C)(Cc1ccccc1F)NC(=O)[C@@H](NC(=O)CNC(=O)[C@H](CCC(=O)O)NC(=O)C(C)(C)NC(=O)[C@@H](N)Cc1ccc(O)cc1)[C@@H](C)O)[C@@H](C)O)C(C)C)[C@@H](C)CC)[C@@H](C)CC)C(=O)N[C@@H](CCC(=O)O)C(=O)NCC(=O)NCC(=O)N1CCC[C@H]1C(=O)N[C@@H](CO)C(=O)N[C@@H](CO)C(=O)NCC(=O)N[C@@H](C)C(=O)N1CCC[C@H]1C(=O)N1CCC[C@H]1C(=O)N1CCC[C@H]1C(=O)N[C@@H](CO)C(N)=O [Example 168], the Emax (hGLP-1R; [5]) is reported as 93.3%, the EC50 (hGCGR; [6]) is reported as > 9950 nM and the Emax (hGIPR; [7]) is reported as 93%.

With CC[C@H](C)[C@H](NC(=O)[C@H](CC(C)C)NC(=O)[C@](C)(Cc1ccc(O)cc1)NC(=O)[C@@H](CCC(=O)O)NC(=O)[C@@H](NC(=O)[C@H](Cc1ccccc1)NC(=O)[C@H](CCC(=O)O)NC(=O)C1(NC(=O)[C@H](CCC(N)=O)NC(=O)[C@H](C)NC(=O)[C@H](CCCCNC(=O)COCCOCCNC(=O)COCCOCCNC(=O)CC[C@H](NC(=O)CCCCCCCCCCCCC(=O)O)C(=O)O)NC(=O)[C@H](CCCN)NC(=O)[C@H](CC(=O)O)NC(=O)[C@H](CC(C)C)NC(=O)[C@](C)(CC(C)C)NC(=O)[C@@H](NC(=O)[C@H](CO)NC(=O)[C@H](Cc2ccncc2)NC(=O)[C@H](CC(=O)O)NC(=O)[C@H](CO)NC(=O)[C@@H](NC(=O)[C@](C)(Cc2ccccc2F)NC(=O)[C@@H](NC(=O)CNC(=O)[C@H](CCC(=O)O)NC(=O)C(C)(C)NC(=O)[C@@H](N)Cc2ccc(O)cc2)[C@@H](C)O)[C@@H](C)O)[C@@H](C)CC)CCCC1)[C@@H](C)CC)C(=O)N[C@@H](CCC(=O)O)C(=O)NCC(=O)NCC(=O)N[C@@H](CCCCNC(=O)COCCOCCNC(=O)COCCOCCNC(=O)CC[C@H](NC(=O)CCCCCCCCCCCCC(=O)O)C(=O)O)C(=O)N[C@@H](CO)C(=O)N[C@@H](CO)C(=O)NCC(=O)N[C@@H](C)C(=O)N1CCC[C@H]1C(=O)N1CCC[C@H]1C(=O)N1CCC[C@H]1C(=O)N[C@@H](CO)C(N)=O [Example 170] the EC50 (hGLP-1R; [4]) was 1.03 nM, the EC50 (hGCGR; [2]) was > 9950 nM and the Emax (hGIPR; [3]) was 93.9%.
